Molecules are shown by their SMILES.

The subject of data set [1] is BaF3 CD74-TRKA-G667C. Put plainly: BaF3 cell proliferation, CCK-8 assay. The following applies: Mus musculus, BaF3, 72 h, read-out: IC50 (nM ± SD) xDFG CD74-TRKA-G667C. (In general: Formazan colour is commonly taken as a measure of viable cells.)
Procedure: (§1) Murine BaF3 cells were purchased from JRCB cell bank. The BaF3 cell lines, which stably express natively-fused TRKA/B/C or various point mutants, were self-established by following previously described procedures. Briefly, NTRK genes were totally synthesized and cloned into pCDNA3.1(+) vectors (Invitrogen, Carlsbad, CA, USA). […] Stable strains were established by selection of cells 2 weeks post-transfection with 800 μg/mL G418 (Merck, Whitehouse Station, NJ) and further selection after the withdrawal of interleukin-3 (IL-3, R&D) for 2 weeks. All of BaF3 stable cell lines were verified by DNA sequencing, protein expression and anti-proliferation activity against positive drugs. […] All cells were grown at 37 °C in a humidified 5% CO2 atmosphere.
(§2) Cells were placed in 96-well plates (5000~8000/well) in complete medium. […] IC50 values were calculated by concentration-response curve fitting using GraphPad Prism 5.0 software. Each IC50 value is expressed as mean ± SD.
The subject of data set [2] is BaF3 CD74-TRKA-G595R. In words: BaF3 cell proliferation, CCK-8 assay. As to conditions: Mus musculus, BaF3, 72 h, read-out: IC50 (nM ± SD) Solvent Front CD74-TRKA-G595R.
Procedure: as §1, §2
Data set [3] concerns BaF3 MPRIP-TRKA. In words: BaF3 cell proliferation, CCK-8 assay. As to conditions: Mus musculus, BaF3, 72 h, read-out: IC50 (nM ± SD) WT MPRIP-TRKA.
Procedure: as §1, §2
For data set [4], the system named is BaF3 ETV6-TRKC. In words: BaF3 cell proliferation, CCK-8 assay. The following applies: Mus musculus, BaF3, 72 h, read-out: IC50 (nM ± SD) WT ETV6-TRKC.
Procedure: as §1, §2
The test system of data set [5] is TRKs-xDGF mutants TRKA-G667C, TRKB-G709C and TRKC-G696C in stable BaF3 models. Put plainly: Western blot of xDFG mutant TRK signal pathway (Figure S2). In kind it is cell-based, Murine. The following applies: 6 h. The method, then: Cells were treated with various concentrations of each tested compound for a designated time. Then cells were lysed using 1 × SDS sample lysis buffer (CST recommended) with protease and phosphatase inhibitors. […] The films were blocked with 5% fat-free milk in TBS solution containing 0.5% Tween-20 for 4 h at room temperature, then incubated with the corresponding primary antibody (1:1000–1:200) overnight at 4 °C. After washing with TBST, HRP-conjugated secondary antibody was incubated for 2 h. The protein signals were visualized by ECL Western Blotting Detection Kit (Thermo Scientific, Waltham, MA, USA), and detected with Amersham Imager 600 system (GE, Boston, MA, USA).
Background: A western blot detects proteins with antibodies after separation by electrophoresis.

The target in data set [6] is T1, TRKC-G696C (Homo sapiens, UniProt Q16288, G696C).
T1 construct: residues 526–839 from the kinase domain; made in house
Put plainly: Bio-layer interferometry (BLI) Octet binding assay. The method, then:
Biolayer interferometry (BLI) assays were performed with the Octet K2 machine (ForteBio, Inc., Fremont, CA, USA). […] A duplicate set of sensors was incubated in an assay buffer (PBS containing 0.02% Tween20 and 0.1% BSA) with 5% DMSO but without protein for use as a background binding control. Both sets of sensors were blocked with a solution of 10 μg/mL biocytin for 1 min at rt. […] Data was analyzed by the FortéBio Data Analysis 8.1 software (FortéBio, Fremont, CA, USA) using a double reference subtraction (sample and sensor references).
On the technique in general: Biolayer interferometry detects binding as a change in optical thickness at a sensor tip.

Data set [7] deals with BaF3 ETV6-TRKC-G623R. In words: BaF3 cell proliferation, CCK-8 assay. The following applies: Mus musculus, BaF3, 72 h, read-out: IC50 (nM ± SD) Solvent Front ETV6-TRKC-G623R.
Procedure: as §1, §2
For data set [8], the system named is BaF3 ETV6-TRKC-F617L. In words: BaF3 cell proliferation, CCK-8 assay. The following applies: Mus musculus, BaF3, 72 h, read-out: IC50 (nM ± SD) Gatekeeper ETV6-TRKC-F617L.
Procedure: as §1, §2
Data set [9] deals with BaF3 QKI-TRKB. Put plainly: BaF3 cell proliferation, CCK-8 assay. The following applies: Mus musculus, BaF3, 72 h, read-out: IC50 (nM ± SD) WT QKI-TRKB.
Procedure: as §1, §2
For data set [10], the system named is BaF3 cells harboring wild-type TRKA/B/C. In words: BaF3 cell proliferation, summary over wild-type lines. As to conditions: Mus musculus, BaF3, read-out: IC50 range in BaF3 cells harboring wild-type TRKA/B/C.
Source text: Murine BaF3 cells were purchased from JRCB cell bank. The BaF3 cell lines, which stably express natively-fused TRKA/B/C or various point mutants, were self-established by following previously described procedures. Briefly, NTRK genes were totally synthesized and cloned into pCDNA3.1(+) vectors (Invitrogen, Carlsbad, CA, USA). The pCDNA3.1(+) plasmids containing different NTRK-fusion genes were introduced into BaF3 cells by electroporation (Amaxa Nucleofector II device) using the “Amaxa Cell Line Nucleofector Kit V” (VCA-1003) according to the manufacturer’s directions. Stable strains were established by selection of cells 2 weeks post-transfection with 800 μg/mL G418 (Merck, Whitehouse Station, NJ) and further selection after the withdrawal of interleukin-3 (IL-3, R&D) for 2 weeks. All of BaF3 stable cell lines were verified by DNA sequencing, protein expression and anti-proliferation activity against positive drugs. […]
as §2
The test system of data set [11] is Parental BaF3 (+IL3). Put plainly: BaF3 cell proliferation, CCK-8 assay. The following applies: Mus musculus, BaF3, 72 h, read-out: IC50 (nM ± SD) Parental BaF3 (+IL3).
Procedure: as §1, §2
For data set [12], the target named is T2, TRKA (Homo sapiens, UniProt P04629).
T2 construct: purchased Invitrogen
In words: FRET-based Z'-Lyte kinase assay. As to conditions: mean ± SD, read-out: IC50 TRKA kinase inhibition. The data set is classed as biochemical.

Data set [13] deals with BaF3 ETV6-TRKB. In words: BaF3 cell proliferation, CCK-8 assay. The following applies: Mus musculus, BaF3, 72 h, read-out: IC50 (nM ± SD) WT ETV6-TRKB.
Procedure: as §1, §2
Data set [14] concerns BaF3 EML4-TRKC. In words: BaF3 cell proliferation, CCK-8 assay. As to conditions: Mus musculus, BaF3, 72 h, read-out: IC50 (nM ± SD) WT EML4-TRKC.
Procedure: as §1, §2
A short description of data set [15]: Pharmacokinetics in rats (Table S4). In kind it is in vivo.
Data set [16] has as its system BaF3-CD74-TRKA-G667C xenograft. In words: BaF3-CD74-TRKA-G667C xenograft model. As to conditions: for TGI (tumor growth inhibition): intraperitoneally once daily, 12 consecutive days. In kind it is in vivo.
The subject of data set [17] is BaF3 ETV6-TRKB-G709C. Put plainly: BaF3 cell proliferation, CCK-8 assay. The following applies: Mus musculus, BaF3, 72 h, read-out: IC50 (nM ± SD) xDFG ETV6-TRKB-G709C.
Procedure: as §1, §2

With `Cc1c(C#Cc2cnc3cnc(-c4ccc(N)cc4)cn23)cccc1C(=O)Nc1cc(CN2CCN(C)CC2)cc(C(C)C)c1` [JND4135, 3-((6-(4-aminophenyl)imidazo[1,2-a]pyrazin-3-yl)ethynyl)-N-(3-isopropyl-5-((4-methylpiperazin-1-yl)methyl)phenyl)-2-methylbenzamide], the IC50 in data set [1] was determined as 1.4 ± 0.2 nM; in [2] it was 33.7 ± 7.1 nM; in [3], 7.1 ± 2.3 nM; in data set [4], 10.4 ± 4 nM; in data set [7], 9.4 ± 2.6 nM; in data set [8], 37.3 ± 14 nM. The IC50 is 2.4 ± 0.6 nM in data set [9]; 0.0024 to 0.0231 µM in data set [10]; 1950 ± 25.1 nM in data set [11]; 0.00279 ± 0.00117 µM in data set [12]; 23.1 ± 5.9 nM in data set [13]; 13.2 ± 2.6 nM in data set [14]. For the same compound, the IC50 in data set [17] came out at 18.7 ± 2.9 nM. For the same compound, in [5], the “dose that effectively inhibits the activation of TRKs-xDGF mutants” value amounted to 8.0 nM. In addition, in data set [6] (Koff, read-out: dissociation rate with TRKC-G696C), the koff came to 0.00135 s⁻¹. Besides, the Kd (in general, the constant that tells how readily two partners part at equilibrium) in data set [6] (read-out: Kd, binding affinity to TRKC-G696C) was determined as 0.00368 µM. Further, in data set [15], the “absorption via oral administration” value is “almost no absorption”. Besides, the “TGI (tumor growth inhibition)” value in data set [16] (20 mg/kg) came out at 34.2%; in [16] (40 mg/kg) it was 81.0%. The “tolerability (mortality, body weight)” value in data set [16] (20 and 40 mg/kg/day, 12 days) is “no mortality or significant body weight loss”. Moreover, in data set [16] (tumor tissues at end of treatment, Western blot), the “activation of TRKA and downstream molecules PLCγ-1 and ERK in tumor tissues” value is recorded as “effectively inhibit”.

These data come from article PMC9570838, “JND4135, a New Type II TRK Inhibitor, Overcomes TRK xDFG and Other Mutation Resistance In Vitro and In Vivo” (Molecules, 2022).
